Experimental data from PMC10004777 (Molecules, 2023).

Tests used:
[1] = system: MCF-7 breast cancer cells; test: Cell viability (MTT) assay, MCF-7; format: cell-based; settings: for anti-proliferation activity on MCF-7 compared with GAA: MCF-7, 48 h
Method: MCF-7 is a commonly used tumor cell line.
(§1) The cell lines present in this study were obtained from Procell Life Science & Technology Co. Ltd. MCF-7, HepG2 and SJSA-1 cells were cultured in DMEM medium (DMEM, Gibco) supplemented with 10% fetal bovine serum (FBS, Gibco), 1% penicillin-streptomycin (Hyclone) at 37℃ in a humid environment with 5% CO2. HK-2 cells were cultured in DMEM/F12 (1:1) medium and placed in incubators in the same environment.
(§2) Cell viability was determined by MTT assay. MCF-7, HepG2, SJSA-1 and HK-2 cells (6 × 10^3 cells /well) were seeded in 96-well plates with serum-free medium for 24 h. […] After 48 or 72 h, 10 μL MTT (5 mg/mL, Beyotime) was added and incubated at 37 °C for 4 h. Then 100 μL of lysate was added. After complete dissolution of the crystal, the absorbance was measured at 540 nm and expressed as the average percentage of absorbance between treated and control cells. The value for control cells was set at 100%. Cell survival rate was calculated as the ratio of the absorbance of the cells and negative control after minus the blank absorbance respectively.

HepG2 cells = test: Cell viability (MTT) assay, HepG2; format: cell-based; settings: for anti-proliferation activity on HepG2 (in words): HepG2, 48 h
Method: (§3) To investigate the selectivity of these derivatives towards different tumor cell lines, we also selected HepG2 and osteosarcoma cell line SJSA-1 cells to evaluate the anti-proliferation activity of the derivatives. […] Except for compounds A2 and A11, the effects of other compounds on SJSA-1 were not strong.
as §1, §2

[2] = system: osteosarcoma cell line SJSA-1; test: Cell viability (MTT) assay, SJSA-1; format: cell-based; settings: for anti-proliferation activity on SJSA-1 (in words): SJSA-1, 72 h
Method: as §3, §1, §2

HK-2 cells = test: Cell viability (MTT) assay, HK-2 normal cells (cytotoxicity); format: cell-based
Method: as §1, §2

MDM2 protein [3] = target: T1, MDM2 protein (Homo sapiens, UniProt Q00987); test: Surface plasmon resonance (SPR) binding assay
T1 construct: purchased Protintech (so in the source)
Method: In order to speculate whether A2 effects the p53-MDM2 pathway by binding with MDM2 to inhibit the interaction between MDM2 and p53, we carried out in silico and in vitro binding experiments. […] We used the S-value to evaluate the binding degree of the compound and MDM2 in the molecular docking experiments. The higher the absolute value of this number, the stronger the binding force.
MDM2 protein (5 mg/mL, Protintech) was immobilized on a PCH sensor chip (Octet) and preactivated with EDC/NHS mixture for 420 s at a flow rate of 10 μL/min. A2 was diluted to 100, 50, 25, 12.5, 6.25, 3.13, 0 μM with PBST buffer containing 1% DMSO. The binding time was 600 s, and the flow rate was 20 μL/min. The dissociation time was 180 s, and the affinity constant KD value was obtained by computer fitting and steady-state analysis.

SJSA-1 cells = test: Flow cytometry apoptosis, Annexin V-FITC/PI staining; format: cell-based; settings: 24 h
Method: Cells were stained with Annexin V-FITC and propidium iodide.
To determine the apoptosis rate, an Annexin V-FITC/PI double staining apoptosis assay kit (Beyotime) was used to detect apoptotic cells by flow cytometry (BD FACSALOBUR), according to the manufacturer’s instructions. Briefly, SJSA-1 cells were treated with 0.1% DMSO, 12.5, 25, and 50 μM of A2 for 24 h. After harvesting, the cells were incubated with 5 μL Annexin V-FITC for 15 min and 10 μL PI for 5 min at 4 °C under dark conditions. Flow cytometry was then performed to analyze the apoptosis rate. Data were analyzed by using BD FACSDiva 8.0.1.

[4] = system: MDM2, p53 protein and Bcl-2/Bax in MCF-7 cells; test: Western blot protein expression, MCF-7; format: cell-based; settings: MCF-7, 24 h
From the text: (§4) In the introduction section, we introduced that the concept that the MDM2-p53 pathway can induce cell apoptosis by up-regulating the expression of p53 protein to inhibit the proliferation of tumor cells, and by blocking the interaction of MDM2 and p53, the activation of p53 results in transcription of MDM2 mRNA, leading to robust MDM2 protein accumulation. In order to verify the effect of A2 on this pathway, we examined the effect of A2 on the protein level of MDM2, p53 protein and Bcl-2/Bax related to apoptosis, as shown in Figure 5. […] The level of Bcl-2/Bax decreased which was consistent with the apoptosis of MCF-7 cells induced by A2. We also investigated the effect of A2 on the SJSA-1 cell line which overexpresses MDM2.
(§5) For Western blot analysis, MCF-7 and SJSA-1 cells were treated with different concentrations of A2 for 24 h. The total cell protein was extracted, and proteins were isolated using 10% SDS-PAGE gel system. The proteins on the gel were transferred to PVDF membrane, blocked in 5% BSA at room temperature for 2 h, incubated in primary antibody dilution at 4 °C overnight, and washed with TBST for 3 times, 10 min each. Then, they were transferred to dilute release solution of secondary antibody and incubated at room temperature for 2 h. ECL chemiluminescence development solution (Beyotime, BeyoECL star) was added uniformly and detected on gel imaging system (Clinx ChemiScope, China). Antibodies for blotting were MDM2 (abcam, ab16895), P53 (Proteintech, 10442-1-AP), Bcl-2 (CST, 15071S), Bax (CST, 2772T) and β-actin (abcam, ab8226).

[5] = system: MDM2 and p53 protein in SJSA-1 cell line; test: Western blot protein expression, SJSA-1; format: cell-based; settings: SJSA-1, 24 h, 12.5, 25 and 50 µM
From the text: as §4
as §5, with “Then, they were transferred to dilute release solution of secondary antibody and incubated at room temperature for 2 h.” left out, “Antibodies for blotting were MDM2 (abcam, ab16895), P53 (Proteintech, 10442-1-AP), Bcl-2 (CST, 15071S), Bax (CST, 2772T) and β-actin (abcam, ab8226).” left out

MDM2 protein [6] = target: T1, MDM2 protein; parameters: method as in PMID 22380771; settings: virtual screening prediction; read-out: Ki (predicted affinity with MDM2 protein); cited from earlier work

T1 sequence (Q00987 whole entry): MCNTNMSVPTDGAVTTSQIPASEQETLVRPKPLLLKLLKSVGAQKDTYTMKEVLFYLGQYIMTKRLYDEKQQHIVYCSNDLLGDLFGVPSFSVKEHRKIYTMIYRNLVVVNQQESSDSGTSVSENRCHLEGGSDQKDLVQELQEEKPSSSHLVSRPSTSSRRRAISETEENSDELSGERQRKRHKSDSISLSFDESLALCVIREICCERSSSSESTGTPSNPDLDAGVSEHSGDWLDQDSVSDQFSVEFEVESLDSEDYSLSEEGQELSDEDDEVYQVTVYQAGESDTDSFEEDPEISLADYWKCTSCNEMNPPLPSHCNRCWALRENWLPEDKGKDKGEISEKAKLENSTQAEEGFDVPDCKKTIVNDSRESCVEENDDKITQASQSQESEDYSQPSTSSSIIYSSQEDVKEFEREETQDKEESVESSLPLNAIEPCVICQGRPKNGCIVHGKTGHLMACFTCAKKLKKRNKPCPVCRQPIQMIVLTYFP

Row | Structure (SMILES) | anti-proliferation activity on MCF-7 compared with GAA [1] | anti-proliferation activity on HepG2 (in words) (HepG2 cells) | anti-proliferation activity on SJSA-1 (in words) [2] | melting point [°C] | Viability of Cells (% of Control) ([1]; 25 µM) | Viability of Cells (% of Control) ([1]; 50 µM) | Viability of Cells (% of Control) ([1]; 100 µM) | Viability of Cells (% of Control) (HepG2 cells; 25 µM) | Viability of Cells (% of Control) (HepG2 cells; 50 µM) | Viability of Cells (% of Control) ([2]; 50 µM) | Viability of Cells (% of Control) ([2]; 100 µM) | Viability of Cells (% of Control) (HK-2 cells; 50 µM) | Viability of Cells (% of Control) (HK-2 cells; 100 µM) | other results
1 | CCCCCCNC(=O)[C@H](C)CC(=O)C[C@@H](C)[C@H]1C[C@H](O)[C@@]2(C)C3=C(C(=O)C[C@]12C)[C@@]1(C)CCC(=O)C(C)(C)[C@@H]1C[C@@H]3O [Compound A2, (n-hexyl)-(7β,15α,25R)-7,15-Dihydroxy-3,11,23-Trioxolanost-8-en-26-oic Amide] | significant anti-proliferation activities | potent anti-proliferation activity | potent inhibition | 129.9 to 131.3 | – | – | – | – | – | – | – | – | – | Viability of Cells (% of Control) ([1]; MCF-7, 25 µM, 48 h, MTT): 66.76 ± 6.2 % of Control; Viability of Cells (% of Control) ([1]; MCF-7, 50 µM, 48 h, MTT): 59.4 ± 4.7 % of Control; Viability of Cells (% of Control) ([1]; MCF-7, 100 µM, 48 h, MTT): 50.37 ± 1.7 % of Control; Viability of Cells (% of Control) (HepG2 cells; HepG2, 25 µM, 48 h, MTT): 78.8 ± 1.7 % of Control; Viability of Cells (% of Control) (HepG2 cells; HepG2, 50 µM, 48 h, MTT): 48.4 ± 2.1 % of Control; Viability of Cells (% of Control) ([2]; SJSA-1, 50 µM, 72 h, MTT): 51.4 ± 1.7 % of Control; Viability of Cells (% of Control) ([2]; SJSA-1, 100 µM, 72 h, MTT): 28.5 ± 3.4 % of Control; Viability of Cells (% of Control) (HK-2 cells; HK-2 normal cells, 50 µM, 48 h, MTT): 97.1 ± 4.1 % of Control; Viability of Cells (% of Control) (HK-2 cells; HK-2 normal cells, 100 µM, 48 h, MTT): 90.9 ± 3.0 % of Control; Kd (MDM2 protein [3]; immobilized MDM2, steady-state analysis): 1.68 µM; Kd (MDM2 protein [3]; printed in Figure 7): 1.648 ± 0.007 µM; proportion of early phase apoptosis cells (Q3) (SJSA-1 cells; SJSA-1, 12.5 µM): 11.6%; proportion of early phase apoptosis cells (Q3) (SJSA-1 cells; SJSA-1, 25 µM): 12.3%; proportion of early phase apoptosis cells (Q3) (SJSA-1 cells; SJSA-1, 50 µM): 18.7%; level of Bcl-2/Bax [4]: decreased; MDM2 protein level ([4]; 50 µM): increasing trend; p53 protein level ([4]; 50 µM): increasing trend; expression of MDM2 [5]: increased in a dose-dependent manner; expression of p53 protein [5]: increased in a dose-dependent manner
2 | Cc1ccc(CCNC(=O)[C@H](C)CC(=O)C[C@@H](C)[C@H]2C[C@H](O)[C@@]3(C)C4=C(C(=O)C[C@]23C)[C@@]2(C)CCC(=O)C(C)(C)[C@@H]2C[C@@H]4O)cc1 [Compound A10, (4-Methylphenethyl)-(7β,15α,25R)-7,15-Dihydroxy-3,11,23-Trioxolanost-8-en-26-oic Amide] | – | – | – | 221.9 to 223 | 120.8 ± 4.8 % of Control | 118.3 ± 6.0 % of Control | 104.1 ± 2.2 % of Control | 57.9 ± 0.5 % of Control | 58.8 ± 1.4 % of Control | 80.0 ± 2.7 % of Control | 75.6 ± 4.8 % of Control | 110.9 ± 9.6 % of Control | 91.1 ± 5.5 % of Control | –
3 | C[C@H](CC(=O)C[C@@H](C)[C@H]1C[C@H](O)[C@@]2(C)C3=C(C(=O)C[C@]12C)[C@@]1(C)CCC(=O)C(C)(C)[C@@H]1C[C@@H]3O)C(=O)NCCc1ccc(F)cc1 [Compound A11, (4-Fluorophenethyl)-(7β,15α,25R)-7,15-Dihydroxy-3,11,23-Trioxolanost-8-en-26-oic Amide] | – | – | some selectivity for SJSA-1 | 188.1 to 189 | 100.5 ± 2.5 % of Control | 101.8 ± 0.2 % of Control | 58.4 ± 5.5 % of Control | 78.5 ± 3.0 % of Control | 69.1 ± 2.0 % of Control | 56.1 ± 8.7 % of Control | 41.9 ± 3.1 % of Control | 89.8 ± 9.6 % of Control | 86.9 ± 2.7 % of Control | –
4 | C[C@H](CC(=O)C[C@@H](C)[C@H]1C[C@H](O)[C@@]2(C)C3=C(C(=O)C[C@]12C)[C@@]1(C)CCC(=O)C(C)(C)[C@@H]1C[C@@H]3O)C(=O)NCCc1ccc(Cl)cc1 [Compound A12, (4-Chlorophenethyl)-(7β,15α,25R)-7,15-Dihydroxy-3,11,23-Trioxolanost-8-en-26-oic Amide] | – | – | – | 195.4 to 196.1 | 119.0 ± 3.4 % of Control | 110.5 ± 6.0 % of Control | 102.9 ± 3.8 % of Control | 29.1 ± 0.4 % of Control | 25.6 ± 0.8 % of Control | 73.5 ± 1.2 % of Control | 65.5 ± 1.5 % of Control | 124.1 ± 2.6 % of Control | 111.2 ± 6.5 % of Control | inhibition at 50 µM (HepG2 cells; Homo sapiens, HepG2, 50 µM (printed: below 50 µM), 48 h, read-out: inhibition rate of HepG2): 74.4%
5 | C[C@H](CC(=O)C[C@@H](C)[C@H]1C[C@H](O)[C@@]2(C)C3=C(C(=O)C[C@]12C)[C@@]1(C)CCC(=O)C(C)(C)[C@@H]1C[C@@H]3O)C(=O)N1CCN(c2ccccc2)CC1 [Compound A15, (4-Phenylpiperazin-1-yl)-(7β,15α,25R)-7,15-Dihydroxy-3,11,23-Trioxolanost-8-en-26-oic Amide] | significant anti-proliferation activities | weaker anti-proliferation effect | – | 229.4 to 229.9 | 74.3 ± 5.2 % of Control | 70.4 ± 1.5 % of Control | 66.5 ± 1.4 % of Control | 77.1 ± 2.1 % of Control | 99.3 ± 0.2 % of Control | 75.9 ± 0.9 % of Control | 83.5 ± 0.8 % of Control | 123.3 ± 5.5 % of Control | 111.0 ± 8.7 % of Control | –
6 | CC(=O)O[C@@H]1C(=O)C2=C(C(=O)C[C@H]3C(C)(C)C(=O)CC[C@]23C)[C@]2(C)C(=O)C[C@H]([C@H](C)CC(=O)CC(C)C(=O)O)[C@@]12C (some centres unmarked) [ganoderic acid F] | – | – | – | – | – | – | – | – | – | – | – | – | – | Ki (MDM2 protein [6]): 0.212 µM
